Measurements as given in paper PMC8557901 (Microbiology Spectrum, 2021).

Experiments:
[1] = system: P. falciparum strain NF54 gametocytes; test: In vitro gametocyte induction and development assays; assay type: cell-based, Plasmodium falciparum
Procedure: To produce gametocytes, P. falciparum strain NF54 was cultured in vitro as described by Trager and Jensen ([46]) with minor modifications. Briefly, parasites were maintained in human type O-positive red blood cells (RBC) at 5% hematocrit (HCT) in RPMI 1640 medium supplemented with 10% heat-inactivated human serum, 10 mM hypoxanthine, 20 μg/ml gentamicin, The cultures were maintained at 37°C in a standard gas mixture of 5% O2, 5% CO2, 90% N2. Synchronous production of gametocytes was achieved as previously described ([47]). Briefly, asexual parasite cultures were synchronized by purifying schizonts with MACS cell separation columns (Miltenyi Biotec) and using them to reinvade erythrocytes. When parasitemia reached 10 to 15% rings, culture medium was supplemented with 50 mM N-acetylglucosamine (NAG; Sigma-Aldrich) for 5 days in order to clear residual asexual parasites and obtain a virtually pure gametocyte culture.
To assess the effect of gamhepathiopine on the induction of gametocytes, M1 (10 μM) was added at the same moment with NAG. For gametocyte development, gamhepathiopine was added 2 days after the addition of NAG. Medium replacement was performed every day. All cultures were prepared in parallel with controls corresponding to cultures that were treated with 0.1% DMSO. The percentages of each stage of gametocytes in cultures were assessed by microscopy of Giemsa-stained thin blood smears.
Figure S2. Protocol of in vitro gametocytocidal activity assays (NAG = N-acetylglucosamine). Gametocytes stages: I, II, III, IV and V. In blue: M1 effect on gametocyte induction: M1 (10 µM) added at D0 on asexual stage before induction with NAG (control= NAG+ DMSO). In green: M1 effect on gametocyte development: M1 (10 µM) added at D3 after induction (Control= DMSO). In red: M1 effect on exflagellation of mature male gametocytes on D10 (Control DMSO)

[2] = system: P. yoelii in mice and Anopheles stephensi; test: In vivo transmission-blocking mosquito feeding assay; conditions: for No. of mosquitoes infected/total no. of mosquitoes (%): untreated 82.8; for No. of oocysts per mosquito: untreated 106; for Mean % parasitemia ± SD: day 4 p.i. in mice prior to mosquito feeding, untreated 0.97 ± 0.17; for Mean % gametocytemia ± SD: day 4 p.i. in mice, untreated 0.05 ± 0.004
Procedure: Experimental mice were infected by i.p. inoculations of 10^7 erythrocytes parasitized with P. yoelii GOMO 15 to test the effect of M1 following two different protocols of drug treatment. Infected mice were randomly allocated into 6 groups (5 mice per group) corresponding to the 3 conditions (control [solvent], M1 50 mg/kg, and PQ 50 mg/kg) in both drug administration protocols. For the first protocol, mice were treated daily from day zero to day 3, while for the second protocol, treatment was administered only once, 4 days after the infection and 2 h before mosquito feeding ([37]). At day 3 p.i., the presence and maturity of gametocytes was checked by microscopic examination of Giemsa-stained thin blood films and live-blood observation to assess microgamete exflagellation density. Mice were then anesthetized and placed according to the treatment on the top of individual cages containing 100 glucose-starved Anopheles stephensi female mosquitoes, which were allowed to feed for 1 h. Unfed mosquitoes were removed from the cages. Seven days after the infectious blood meal, 30 mosquitoes were dissected and their midguts examined using a phase-contrast microscope (400×) to assess the presence of oocysts. Two weeks after the blood meal, the salivary glands of 30 mosquitos were dissected to estimate the average number of sporozoites per mosquito in each group.

[3] = system: P. falciparum F32-ART5 quiescent parasites; test: Quiescent-stage survival assay (QSA); assay type: cell-based, Plasmodium falciparum; conditions: artemisinin 3 μM 6 h then artemisinin + M1 2.5 μM 24 h versus artemisinin alone; 6-day threshold = active
Procedure: The Plasmodium falciparum artemisinin-resistant strain F32-ART5 and its twin artemisinin-sensitive line F32-TEM ([30], [31]) were cultivated at 37°C with 5% CO2 in human red blood cells (EFS [French Blood Bank]) diluted to 2% hematocrit in RPMI 1640 medium supplemented with 5% human serum (EFS) as previously reported ([47]).
Chemosensitivity evaluation of artemisinin-resistant parasites at the quiescent stage was performed on the F32-ART5 strain using the quiescent-stage survival assay (QSA) ([33]). D-Sorbitol-synchronized ring-stage parasites at 3% parasitemia (2% hematocrit) were first exposed to 3 μM artemisinin for 6 h to induce quiescence of artemisinin-resistant parasites. Then, quiescent parasites were exposed or not (as a control condition) to 2.5 μM M1 for 24 h. After drug exposure, parasite cultures were washed with RPMI 1640 medium and replaced in normal drug-free culture conditions. The time to parasite recrudescence was determined as the time required to reach initial parasitemia. […] In each experiment, results obtained with the condition “artemisinin 3 μM 6 h/artemisinin 3 μM 24 h” were compared to those obtained with the condition “artemisinin 3 μM 6 h/(artemisinin 3 μM + M1 2.5 μM) 24 h” in order to determine the delay in recrudescence time. […] Each experiment was carried out three times independently, and data statistically analyzed. […]

hERG channel = target: T1, hERG channel (Homo sapiens, UniProt Q12809); test: Predictor hERG fluorescence polarization binding assay; conditions: 0.01 nM to 100 µM
T1 construct: purchased ThermoFischer PV5665
T1 sequence (Q12809 whole entry): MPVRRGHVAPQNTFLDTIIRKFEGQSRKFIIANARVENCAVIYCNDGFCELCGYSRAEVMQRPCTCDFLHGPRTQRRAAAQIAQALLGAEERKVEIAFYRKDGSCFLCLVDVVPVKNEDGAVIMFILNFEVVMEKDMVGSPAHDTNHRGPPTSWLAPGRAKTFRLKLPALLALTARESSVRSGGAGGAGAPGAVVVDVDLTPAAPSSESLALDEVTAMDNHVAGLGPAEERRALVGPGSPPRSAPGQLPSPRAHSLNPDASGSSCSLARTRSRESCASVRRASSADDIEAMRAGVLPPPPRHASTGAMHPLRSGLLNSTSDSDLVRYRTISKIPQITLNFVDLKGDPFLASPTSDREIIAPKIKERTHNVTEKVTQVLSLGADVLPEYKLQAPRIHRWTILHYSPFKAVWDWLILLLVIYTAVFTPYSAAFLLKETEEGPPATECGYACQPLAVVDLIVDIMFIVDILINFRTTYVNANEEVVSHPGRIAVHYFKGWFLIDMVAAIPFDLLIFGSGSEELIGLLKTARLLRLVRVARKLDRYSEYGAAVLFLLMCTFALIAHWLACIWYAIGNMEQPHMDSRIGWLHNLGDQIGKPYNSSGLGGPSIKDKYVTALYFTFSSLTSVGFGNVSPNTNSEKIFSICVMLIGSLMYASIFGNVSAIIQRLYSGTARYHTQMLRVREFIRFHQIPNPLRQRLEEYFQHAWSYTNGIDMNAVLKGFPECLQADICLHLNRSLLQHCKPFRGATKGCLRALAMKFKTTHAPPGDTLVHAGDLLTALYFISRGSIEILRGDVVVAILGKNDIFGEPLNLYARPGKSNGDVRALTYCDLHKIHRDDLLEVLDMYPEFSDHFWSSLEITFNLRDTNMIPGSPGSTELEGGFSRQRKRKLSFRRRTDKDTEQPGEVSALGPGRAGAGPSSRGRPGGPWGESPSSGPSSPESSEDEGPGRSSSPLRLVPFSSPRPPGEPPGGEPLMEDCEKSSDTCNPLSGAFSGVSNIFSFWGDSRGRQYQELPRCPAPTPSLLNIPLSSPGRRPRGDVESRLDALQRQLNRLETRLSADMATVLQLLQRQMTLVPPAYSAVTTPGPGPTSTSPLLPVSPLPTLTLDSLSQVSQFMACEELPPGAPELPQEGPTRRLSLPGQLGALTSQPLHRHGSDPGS
Procedure: hERG channel binding was determined with the PredictorTM hERG Fluorescence Polarization Assay (PV5665 ThermoFischer). Briefly, reagents were thawed, and were mixed by pipetting 20x with PredictorTM hERG membranes. The fluorescent tracer was diluted at 4 nM in the PredictorTM hERG buffer. […] The assay was performed in a 96-well Greiner microplate (675093 Dutscher). 25 µL of each concentration of M1 were dispensed into the plate. Then, 50 µL of the PredictorTM hERG membranes and 25 µL of the fluorescent tracer 4 nM were added. The plate was incubated at room temperature for 4 h. The fluorescence polarization measurements were made using a Synergy 2 microplate reader (Biotek Instrument, Colmar, France). Both parallel and perpendicular fluorescence were measured using 530/25 nm excitation and 590/35 nm emission filters with a 570 nm dichroic mirror. The gain was fixed at 110. A known hERG channel blocker (E-4031), provided by the kit, was assayed as positive reference. Both E-4031 and M1 were tested at final concentrations ranging from 0.01 nM to 100 µM. IC50 values were determined graphically by plotting the % inhibition versus the logarithm of 9 M1 concentrations in the assay solution using the GraphPad Prism software (version 6.01, GraphPad Software, La Jolla, CA, USA).

[4] = 50 mg/kg i.p. every day D0 to D3
[5] = 50 mg/kg i.p. on day 3, 2 h before feeding

For `Cc1ccc(-c2cc3nc(NC(C)(C)C)[nH]c(=O)c3s2)cc1` [Metabolite M1, 2-(tert-Butylamino)-6-(p-tolyl)thieno[3,2-d]pyrimidin-4(3H)-one], the “stage III gametocytes mean value” ([1]; 10 μM added after induction, day 6 postinduction, control 1.29) was 0.48, the “stage V gametocytes mean value” ([1]; 10 μM added after induction, day 10 postinduction, control 0.70) was 0.26 and the “reduction of the conversion rate of asexual parasites into gametocytes” value ([1]; 10 μM added at D0 with NAG, renewed every day) was 87.8%. The “reduction in parasitemia before mosquito feeding” value ([2]; 50 mg/kg during D0 to D3, day 4) was 50%, the “No. of mosquitoes infected/total no. of mosquitoes (%)” value [2, 4] was 25/35 (71.4) % and the “No. of oocysts per mosquito” value [2, 4] was 32. The “No. of mosquitoes infected/total no. of mosquitoes (%)” value [2, 5] was 13/35 (37.1) %, the “No. of oocysts per mosquito” value [2, 5] was 1 and the “Mean % parasitemia ± SD” value [2, 4] was 0.47 ± 0.24%. For the same compound, the “Mean % parasitemia ± SD” value [2, 5] was 0.99 ± 0.34%, the “Mean % gametocytemia ± SD” value [2, 4] was 0.04 ± 0.009% and the “Mean % gametocytemia ± SD” value [2, 5] was 0.04 ± 0.01%. For the same compound, the “median delay in recrudescence time” value [3] was 6 days and the “binding toward the hERG channel” value (hERG channel) was “no affinity”.
